Source: PubChem BioAssay AID256 (DTP/NCI, 2004)
“And” between values parts separate entries of the source, which are not always exact repeats. Equal entries are not always repeated. Inconclusive results and toxic doses are left out. How the source made its calls: active means survival T/C of 150% or more; inactive means T/C below 125% in these data.

System: CD2F1 mice, L1210 leukemia ip, survival T/C
Assay: NCI In Vivo Anticancer Drug Screen. Data for tumor model L1210 Leukemia (intraperitoneal) in CD2F1 (CDF1) mice
Conditions: higher = longer survival
How it was run: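 In this screen, transplantable tumors were grown in mice given either the compound or its vehicle. Results were expressed as the treated measurement relative to the control measurement.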

[1] = endpoint: mean survival time, dose: 50.0 mg/kg/injection, schedule: Q01DX009 (ip), vehicle: saline with Tween-80
[2] = endpoint: mean survival time, dose: 100.0 mg/kg/injection, schedule: Q01DX009 (ip), vehicle: saline with Tween-80
[3] = endpoint: mean survival time, dose: 200.0 mg/kg/injection, schedule: Q01DX009 (ip), vehicle: saline with Tween-80
[4] = endpoint: mean survival time, dose: 100.0 mg/kg/injection, schedule: Q01DX001 (ip), vehicle: saline with Tween-80
[5] = endpoint: mean survival time, dose: 200.0 mg/kg/injection, schedule: Q01DX001 (ip), vehicle: saline with Tween-80

Measured: T/C

NC1=NCN(C2OC(CO)C(O)C2O)C(=O)N1 (centres undefined)
inactive: endpoint: mean survival time, dose: 1.56 mg/kg/injection, schedule: Q01DX009 (ip), vehicle: saline 96 % of control | endpoint: mean survival time, dose: 3.12 mg/kg/injection, schedule: Q01DX009 (ip), vehicle: saline 113 % of control and 120 % of control and 93 % of control | endpoint: mean survival time, dose: 3.13 mg/kg/injection, schedule: Q01DX009 (ip), vehicle: saline 113 % of control | endpoint: mean survival time, dose: 6.25 mg/kg/injection, schedule: Q01DX009 (ip), vehicle: saline 96 % of control | endpoint: mean survival time, dose: 12.5 mg/kg/injection, schedule: Q01DX009 (ip), vehicle: saline 89 % of control | endpoint: mean survival time, dose: 25.0 mg/kg/injection, schedule: Q01DX009 (ip), vehicle: saline 90 % of control and 100 % of control | endpoint: mean survival time, dose: 50.0 mg/kg/injection, schedule: Q01DX009 (ip), vehicle: saline 110 % of control | endpoint: mean survival time, dose: 50.0 mg/kg/injection, schedule: Q01DX009 (oral), vehicle: saline 96 % of control | endpoint: mean survival time, dose: 100.0 mg/kg/injection, schedule: Q01DX009 (ip), vehicle: saline 95 % of control | endpoint: mean survival time, dose: 100.0 mg/kg/injection, schedule: Q01DX009 (oral), vehicle: saline 110 % of control | endpoint: mean survival time, dose: 200.0 mg/kg/injection, schedule: Q01DX009 (ip), vehicle: saline 95 % of control | endpoint: mean survival time, dose: 200.0 mg/kg/injection, schedule: Q01DX009 (oral), vehicle: saline 119 % of control | endpoint: mean survival time, dose: 400.0 mg/kg/injection, schedule: Q01DX009 (ip), vehicle: saline 124 % of control | endpoint: mean survival time, dose: 600.0 mg/kg/injection, schedule: Q01DX009 (ip), vehicle: saline 100 % of control | endpoint: mean survival time, dose: 800.0 mg/kg/injection, schedule: Q01DX009 (oral), vehicle: saline 118 % of control | endpoint: median survival time, dose: 1.56 mg/kg/injection, schedule: Q01DX009 (ip), vehicle: saline 110 % of control | endpoint: median survival time, dose: 32.0 mg/kg/injection, schedule: Q03HX008 (ip), vehicle: saline 124 % of control | endpoint: median survival time, dose: 64.0 mg/kg/injection, schedule: Q01DX001 (oral), vehicle: saline 98 % of control | endpoint: median survival time, dose: 64.0 mg/kg/injection, schedule: Q01DX009 (oral), vehicle: saline 100 % of control | endpoint: median survival time, dose: 64.0 mg/kg/injection, schedule: Q03HX008 (ip), vehicle: saline 124 % of control | endpoint: median survival time, dose: 128.0 mg/kg/injection, schedule: Q03HX024 (oral), vehicle: saline 113 % of control | endpoint: median survival time, dose: 128.0 mg/kg/injection, schedule: Q04DX003 (oral), vehicle: saline 98 % of control | endpoint: median survival time, dose: 256.0 mg/kg/injection, schedule: Q01DX001 (ip), vehicle: saline 124 % of control | endpoint: median survival time, dose: 256.0 mg/kg/injection, schedule: Q01DX001 (oral), vehicle: saline 100 % of control | endpoint: median survival time, dose: 256.0 mg/kg/injection, schedule: Q03HX008 (oral), vehicle: saline 118 % of control | endpoint: median survival time, dose: 256.0 mg/kg/injection, schedule: Q04DX003 (oral), vehicle: saline 100 % of control | endpoint: median survival time, dose: 512.0 mg/kg/injection, schedule: Q03HX008 (oral), vehicle: saline 124 % of control | endpoint: median survival time, dose: 512.0 mg/kg/injection, schedule: Q04DX003 (oral), vehicle: saline 113 % of control | endpoint: median survival time, dose: 1024.0 mg/kg/injection, schedule: Q01DX001 (oral), vehicle: saline 124 % of control | endpoint: median survival time, dose: 1024.0 mg/kg/injection, schedule: Q01DX009 (ip), vehicle: saline 92 % of control and 98 % of control | endpoint: median survival time, dose: 1024.0 mg/kg/injection, schedule: Q01DX009 (sc), vehicle: saline 91 % of control

Nc1ncnc2c1ncn2C1OCC(O)C(O)C1O (centres undefined)
inactive: endpoint: mean survival time, dose: 50.0 mg/kg/injection, schedule: Q01DX001 (ip), vehicle: saline 101 % of control | endpoint: mean survival time, dose: 100.0 mg/kg/injection, schedule: Q01DX001 (ip), vehicle: saline 102 % of control | endpoint: mean survival time, dose: 200.0 mg/kg/injection, schedule: Q01DX001 (ip), vehicle: saline 101 % of control | endpoint: mean survival time, dose: 400.0 mg/kg/injection, schedule: Q01DX001 (ip), vehicle: saline 98 % of control

C=CCOc1c(C(=O)OCC)cnc2c1cnn2CC
inactive: endpoint: mean survival time, dose: 100.0 mg/kg/injection, schedule: Q04DX003 (ip), vehicle: Klucel (hydroxypropylcellulose) (HPC) 108 % of control | endpoint: mean survival time, dose: 200.0 mg/kg/injection, schedule: Q04DX003 (ip), vehicle: Klucel (hydroxypropylcellulose) (HPC) 108 % of control | endpoint: mean survival time, dose: 400.0 mg/kg/injection, schedule: Q04DX003 (ip), vehicle: Klucel (hydroxypropylcellulose) (HPC) 101 % of control

CC1(c2ccc(O)cc2)CCC(C(C)(C)c2ccc(O)cc2)CC1 (centres undefined)
inactive: endpoint: mean survival time, dose: 100.0 mg/kg/injection, schedule: Q04DX003 (ip), vehicle: saline with Tween-80 92 % of control | endpoint: mean survival time, dose: 200.0 mg/kg/injection, schedule: Q04DX003 (ip), vehicle: saline with Tween-80 90 % of control | endpoint: mean survival time, dose: 400.0 mg/kg/injection, schedule: Q04DX003 (ip), vehicle: saline with Tween-80 90 % of control

CCC1=C(C)C(=O)Nc2c3ncnc-3ncn2C1O (centres undefined)
inactive: [1] 104 % of control | [2] 101 % of control | [3] 102 % of control

Cc1cccc(NC(=O)COc2c(C)cc(Cl)cc2Cl)c1
inactive: endpoint: mean survival time, dose: 100.0 mg/kg/injection, schedule: Q04DX002 (ip), vehicle: saline with Tween-80 98 % of control | endpoint: mean survival time, dose: 200.0 mg/kg/injection, schedule: Q04DX002 (ip), vehicle: saline with Tween-80 94 % of control | endpoint: mean survival time, dose: 400.0 mg/kg/injection, schedule: Q04DX002 (ip), vehicle: saline with Tween-80 90 % of control

CC1(C)CC(=O)C=C(N2CCC(CCCC3CCN(C4=CC(=O)CC(C)(C)C4)CC3)CC2)C1
inactive: [1] 102 % of control | [4] 100 % of control | [2] 95 % of control | [5] 93 % of control

CCCCCCCCCCCC(=O)NC1CC(O[C@H]2C[C@](O)(C(=O)CO)Cc3c(O)c4c(c(O)c32)C(=O)c2c(OC)cccc2C4=O)OC(C)C1O (some centres undefined)
inactive: endpoint: mean survival time, dose: 1.5 mg/kg/injection, schedule: Q01DX009 (ip), vehicle: saline with Tween-80 108 % of control | endpoint: mean survival time, dose: 1.5 mg/kg/injection, schedule: Q01DX009 (ip), vehicle: saline 104 % of control | endpoint: mean survival time, dose: 3.0 mg/kg/injection, schedule: Q01DX009 (ip), vehicle: saline with Tween-80 98 % of control | endpoint: mean survival time, dose: 3.0 mg/kg/injection, schedule: Q01DX009 (ip), vehicle: saline 113 % of control | endpoint: mean survival time, dose: 6.0 mg/kg/injection, schedule: Q01DX009 (ip), vehicle: saline with Tween-80 105 % of control | endpoint: mean survival time, dose: 6.0 mg/kg/injection, schedule: Q01DX009 (ip), vehicle: saline 113 % of control | endpoint: mean survival time, dose: 6.25 mg/kg/injection, schedule: Q01DX009 (ip), vehicle: distilled water + Tween-80 105 % of control | endpoint: mean survival time, dose: 12.0 mg/kg/injection, schedule: Q01DX009 (ip), vehicle: saline with Tween-80 107 % of control | endpoint: mean survival time, dose: 12.5 mg/kg/injection, schedule: Q01DX009 (ip), vehicle: distilled water + Tween-80 105 % of control | endpoint: mean survival time, dose: 24.0 mg/kg/injection, schedule: Q01DX009 (ip), vehicle: saline with Tween-80 112 % of control | endpoint: mean survival time, dose: 24.0 mg/kg/injection, schedule: Q01DX009 (ip), vehicle: saline 116 % of control | endpoint: mean survival time, dose: 25.0 mg/kg/injection, schedule: Q01DX009 (ip), vehicle: distilled water + Tween-80 112 % of control | endpoint: mean survival time, dose: 48.0 mg/kg/injection, schedule: Q01DX009 (ip), vehicle: saline with Tween-80 97 % of control | endpoint: mean survival time, dose: 50.0 mg/kg/injection, schedule: Q01DX009 (ip), vehicle: distilled water + Tween-80 116 % of control

Cc1c2c(cc3c1CCC1(C)C3CCC1C(C)/C=C/C(C)C(C)C)CC(O)CC2 (centres undefined)
inactive: [4] 92 % of control | [5] 95 % of control | endpoint: mean survival time, dose: 400.0 mg/kg/injection, schedule: Q01DX001 (ip), vehicle: saline with Tween-80 92 % of control

COc1cc2c(c(OC)c1OC)-c1ccc(OC)c(=O)cc1C(=O)CC2
inactive: endpoint: mean survival time, dose: 5.0 mg/kg/injection, schedule: Q01DX Z (ip), vehicle: saline 121 % of control | endpoint: mean survival time, dose: 7.0 mg/kg/injection, schedule: Q01DX Z (ip), vehicle: saline 121 % of control | endpoint: mean survival time, dose: 10.0 mg/kg/injection, schedule: Q01DX Z (ip), vehicle: saline 114 % of control

Cc1o[nH]c(=O)c1C
inactive: [2] 96 % of control | [3] 98 % of control | endpoint: mean survival time, dose: 400.0 mg/kg/injection, schedule: Q01DX009 (ip), vehicle: saline with Tween-80 98 % of control
